What was measured:
retina (GCL, IPL) = test: retinal damage induced by intravitreal NMDA injection, systemic (i.p.) inhibitor; format: in vivo, mice
Protocol: FIG. 8A: Representative images show H&E-stained ganglion cell and Plexiform layers of: i) naïve retina; ii) PBS-treated (intravitreally, 2 μI) or NMDA-treated (intravitreally, 2 μI of 2.5 mM) retina from wild-type mice that had been intraperitoneally injected with vehicle (20% DMSO), Formula I (C2l in the drawing, 0.3 mg/kg) or the pan-calpain inhibitor calpeptin (10 mg/kg) at 30 min before and 6 h after NMDA injection. H&E staining was done at 7 days after NMDA injection.
FIG. 8B: Quantitative analysis of cell number in the GCL of wild-type mice that had been injected intravitreally 7 days earlier with either 2 μI PBS or 2 μI NMDA (2.5 mM). The mice were intraperitoneally injected with vehicle (20% DMSO), a Formula I (C2l in the drawing, 0.3 mg/kg) or the pan-calpain inhibitor calpeptin (10 mg/kg) at 30 min before and 6 h after NMDA injection. Columns represent mean±S.E.M. n=4-6. *p<0.05; **p<0.01; ***p<0.001 versus NMDA plus vehicle-injected group. One-way ANOVA followed by Bonferroni test.
FIG. 8C: Quantitative analysis of thickness of the IPL of wild-type mice that had been injected intravitreally 7 days earlier with either 2 μI PBS or 2 μI NMDA (2.5 mM). The mice were intraperitoneally injected with vehicle (20% DMSO), Formula I (C2l in the drawing, 0.3 mg/kg) or the pan-calpain inhibitor calpeptin (10 mg/kg) at 30 min before and 6 h after NMDA injection.
FIG. 9A: Representative immunoblot of the levels of Spectrin breakdown products (SBDP), full-length PH domain and Leucine-rich repeat Protein Phosphatase 1 (PHLPP1)α and Akt in mouse retinal extracts 6 h after intravitreal injection of PBS (control) or NMDA (2 μI of 2.5 mM). Mice were injected i.p. with vehicle (10% DMSO) or C2l (0.3 mg/kg) 30 min before intravitreal injection.
FIG. 9B: Quantitation of ratios of SBDP/Akt, as determined in retinal extracts 6 h after NMDA or PBS injections. Data represent means±S.E.M. n=4. *p<0.05, ***p<0.001,. One-way ANOVA followed by Bonferroni test.
FIG. 9C: Quantitation of ratios of PHLPP1α/Akt, as determined in retinal extracts 6 h after NMDA or PBS injections. Data represent means±S.E.M. n=4. *p<0.05, ***p<0.001,. One-way ANOVA followed by Bonferroni test.
(§1) FIG. 9E: Quantitative analysis of cell number in the GCL from wild-type mice 7 days after NMDA-injection. Six sections cut through the optic disc from each eye were analyzed. Cell numbers in GCL at a distance between 500 and 1000 μm from the optic disc were counted. Cell densities from 6 sections from each eye were averaged.
as §1, with “FIG. 9F:” for “FIG. 9E:”, “of thickness of” for “of cell number in”, “the IPL” for “the GCL”
as §1, with “9H:” for “9E:”, “calpain-1 KO” for “wild-type”, “averaged. Data represent means±S.E.M. n=6. *p<0.05, **p<0.01, ***p<0.001, One-way ANOVA followed by Bonferroni test.” for “averaged.”
as §1, with “9I:” for “9E:”, “thickness of” for “cell number in”, “IPL of calpain-1” for “GCL from wild-type”, “averaged. Data represent means±S.E.M. n=6. *p<0.05, **p<0.01, ***p<0.001, One-way ANOVA followed by Bonferroni test.” for “averaged.”
FIG. 9J: Comparison of GCL cell numbers in NMDA-treated WT and KO mice without and with C2l treatment. n=6. **p<0.01. Two-tailed t-test. […]

learning and memory = test: fear conditioning protocol; format: in vivo, mice; settings: various doses i.p. 30 min before training
Protocol: (§2) FIG. 7A: Effects of an calpain-2 selective inhibitor on fear conditioning. […] Various doses of the compound of Formula I (m-CalpI in the drawing) were injected i.p. 30 min before training to learn the association between a context or a tone with a painful stimulus. Animals were tested 24 h later for their fear responses to the context, and memory strength was quantified by the amount of time mice freeze (their biological response to fear). The ratio between the doses producing enhancement and decrease matches the ratio between the Kis to inhibit calpain-2 and calpain-1. […] Results are means±S.E.M. of 8-10 experiments. *p<0.05 (ANOVA followed by Bonferroni post-test).
as §2, with “7B:” for “7A:”, “1 (m-CalpI)” for “I (m-CalpI in the drawing)”, “48” for “24”, “tone,” for “context,”
Formula 1 Enhances Memory. […] In this protocol, mice were trained to learn the association between a context or a tone with a painful stimulus. Various doses of the compound of Formula 1 (mCalp-I) were injected i.p. 30 min before training. Animals were tested 24 h later in the context (FIG. 7A) and 48 h later with the tone (FIG. 7B). When tested 24 h or 48 h later for their fear responses to either the context or the tone, memory strength was quantified by the amount of time mice freeze (their biological response to fear). The ratio between the doses producing enhancement and decrease matches the ratio between the Kis to inhibit calpain-2 and calpain-1. […] Results are means±S.E.M. of 8-10 experiments. *p<0.05 (ANOVA followed by Bonferroni post-test).

[1] = WT mice, i.p. 30 min before and 6 h after NMDA
[2] = calpain-1 KO mice, systemic injection
[3] = i.p. 30 min before NMDA, 6 h after NMDA, WT mice

CCC(NC(=O)C(CC(C)C)NC(=O)OCc1ccccc1)C(=O)C(=O)NCc1cc(OC)cc(OC)c1 (racemic) [Formula 1, Z-Leu-Abu-CONH—CH2-C6H3 (3, 5-(OMe)2)]
NMDA-induced retinal damage (retina (GCL, IPL); 0.3 mg/kg i.p. 30 min before and 6 h after NMDA, wild-type mice): protective against NMDA-induced retinal damage
effect on GCL cell survival, KO versus WT mice (retina (GCL, IPL); NMDA-treated): lower in KO mice than in WT mice
NMDA-induced reduction in GCL cell density (retina (GCL, IPL); [1]): significantly suppressed the reduction
NMDA-induced reduction in IPL thickness (retina (GCL, IPL); [1]): significantly suppressed the reduction
NMDA-induced decrease in GCL cell density (retina (GCL, IPL); [2]): partially but significantly reversed
NMDA-induced decrease in IPL thickness (retina (GCL, IPL); [2]): partially but significantly reversed
NMDA-induced changes in PHLPP1 in retinal extracts (retina (GCL, IPL); [3]): not
NMDA-induced changes in SBDP in retinal extracts (retina (GCL, IPL); [3]): significantly suppressed
effect on learning and memory in the fear conditioning protocol (learning and memory; context 24 h, tone 48 h): biphasic effect
effect on learning and memory, fear response to the context (learning and memory; tested 24 h later): biphasic effect
effect on learning and memory, fear response to the tone (learning and memory; tested 48 h later): biphasic effect

From patent US20190030114A1, “ISOFORM-SPECIFIC CALPAIN INHIBITORS, METHODS OF IDENTIFICATION, AND USES THEREOF” (WESTERN UNIVERSITY OF HEALTH SCIENCES, priority 2014, published 2019)
